Laboratory results reported in patent US9169260B2 (MERCK SHARP & DOHME CORP., priority 2011, dated 2015).

target: GST tagged IRAK-4 (Homo sapiens (Human), UniProt Q9NWZ3); assay: IRAK-4 Kinase Assay (IMAP fluorescence polarization); format: biochemical; conditions: 100 μM ATP, 30 minutes at 25° C.
Method in brief: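 Activity was read by IMAP fluorescence polarization, where phosphopeptide binding to M(III) nanoparticles raises FP. The 30-minute, 25° C reaction used 100 μM ATP, 100 nM RP7030 substrate and 0.5 nM GST-IRAK-4 in pH 7.2 Tris buffer with MgCl2, DTT and Tween 20.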

GST tagged IRAK-4, sequence (Q9NWZ3 whole entry): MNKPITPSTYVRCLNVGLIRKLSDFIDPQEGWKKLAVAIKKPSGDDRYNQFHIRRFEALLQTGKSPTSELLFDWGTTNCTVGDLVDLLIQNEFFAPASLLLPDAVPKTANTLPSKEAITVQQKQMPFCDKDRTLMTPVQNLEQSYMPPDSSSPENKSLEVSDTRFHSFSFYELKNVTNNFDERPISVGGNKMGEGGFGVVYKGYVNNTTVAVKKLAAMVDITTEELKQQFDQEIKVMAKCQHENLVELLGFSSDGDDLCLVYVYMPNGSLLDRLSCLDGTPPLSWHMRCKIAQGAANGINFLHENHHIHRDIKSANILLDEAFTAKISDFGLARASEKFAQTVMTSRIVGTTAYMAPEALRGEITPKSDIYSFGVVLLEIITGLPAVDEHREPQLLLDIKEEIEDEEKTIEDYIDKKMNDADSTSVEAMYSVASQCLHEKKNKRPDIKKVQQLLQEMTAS

Compound	IC50 [µM]
Cc1ccc(-n2nc(C3CCN(S(C)(=O)=O)CC3)cc2NC(=O)c2cnn3cc(C#N)cnc23)nc1 [Example 191, 6-cyano-N-(1-(5-methylpyridin-2-yl)-3-(1-(methylsulfonyl)piperidin-4-yl)-1H-pyrazol-5-yl)pyrazolo[1,5-a]pyrimidine-3-carboxamide]	< 0.1
CNS(=O)(=O)c1ccc(-c2cc(NC(=O)c3cnn4cc(Br)cnc34)n(-c3ccc(C)cn3)n2)cc1 [Example 194, 6-bromo-N-(1-(5-methylpyridin-2-yl)-3-(4-(N-methylsulfamoyl)phenyl)-1H-pyrazol-5-yl)pyrazolo[1,5-a]pyrimidine-3-carboxamide]	< 0.1
CNS(=O)(=O)c1ccc(-c2cc(NC(=O)c3cnn4cc(Cl)cnc34)n(-c3ccc(C)cn3)n2)cc1 [Example 196, 6-chloro-N-(1-(5-methylpyridin-2-yl)-3-(4-(N-methylsulfamoyl)phenyl)-1H-pyrazol-5-yl)pyrazolo[1,5-a]pyrimidine-3-carboxamide]	< 0.1
[2H]C([2H])([2H])c1ccc(-n2nc(N3CCN(C)CC3)cc2NC(=O)c2cnn3cccnc23)nc1 [Example 198, N-(3-(4-methylpiperazin-1-yl)-1-(5-trideuteromethylpyridin-2-yl)-1H-pyrazol-5-yl)pyrazolo[1,5-a]pyrimidine-3-carboxamide]	< 0.1
Cc1ccc(-n2nc(N3CCN(S(C)(=O)=O)CC3)cc2NC(=O)c2cnn3cccnc23)nc1 [Example 199, N-(1-(5-methylpyridin-2-yl)-3-(4-(methylsulfonyl)piperazin-1-yl)-1H-pyrazol-5-yl)pyrazolo[1,5-a]pyrimidine-3-carboxamide]	< 0.1

Continued, values first:

IC50 [µM]	Compound
< 0.1	Cc1ccc(-n2nc(N3CCN(C)CC3)cc2NC(=O)c2cnn3cccnc23)nc1 [Example 197, N-(3-(4-methylpiperazin-1-yl)-1-(5-methylpyridin-2-yl)-1H-pyrazol-5-yl)pyrazolo[1,5-a]pyrimidine-3-carboxamide]
< 0.1	[2H]C([2H])([2H])c1ccc(-n2nc(N3CCN(S(C)(=O)=O)CC3)cc2NC(=O)c2cnn3cccnc23)nc1 [Example 200, N-(1-(5-trideuteromethylpyridin-2-yl)-3-(4-(methylsulfonyl)piperazin-1-yl)-1H-pyrazol-5-yl)pyrazolo[1,5-a]pyrimidine-3-carboxamide]
< 0.1	CN1CCN(c2cc(NC(=O)c3cnn4cccnc34)n(-c3ccc(C4CC4)cn3)n2)CC1 [Example 201, N-(1-(5-cyclopropylpyridin-2-yl)-3-(4-methylpiperazin-1-yl)-1H-pyrazol-5-yl)pyrazolo[1,5-a]pyrimidine-3-carboxamide]
< 0.1	Cc1ccc(-n2nc(N3CCOCC3)cc2NC(=O)c2cnn3cccnc23)nc1 [Example 202, N-(1-(5-methylpyridin-2-yl)-3-morpholino-1H-pyrazol-5-yl)pyrazolo[1,5-a]pyrimidine-3-carboxamide]
< 0.1	Cc1ccc(-n2nc(C3CCN(C4CCCCC4)CC3)cc2NC(=O)c2cnn3cccnc23)cc1 [Example 204, N-[3-(1-cyclohexylpiperidin-4-yl)-1-(4-methylphenyl)-1H-pyrazol-5-yl]pyrazolo[1,5-a]pyrimidine-3-carboxamide]
< 0.1	Cc1ccc(-n2nc(C3CCN(C4CCOCC4)CC3)cc2NC(=O)c2cnn3cccnc23)cc1 [Example 206]
< 0.1	CCC(C)N1CCC(c2cc(NC(=O)c3cnn4cccnc34)n(-c3ccc(C)cc3)n2)CC1 (stereo not drawn) [Example 209]
< 0.1	CCCC(C)N1CCC(c2cc(NC(=O)c3cnn4cccnc34)n(-c3ccc(C)cc3)n2)CC1 (stereo not drawn) [Example 210]

same assay, conditions: 100 μM ATP, 30 minutes at 25° C.; μM

IC50 [µM]	Compound
< 1	CNS(=O)(=O)c1ccc(-c2cc(NC(=O)c3cnn4cc(C5CC5)cnc34)n(-c3ccc(C)cn3)n2)cc1 [Example 195, 6-cyclopropyl-N-(1-(5-methylpyridin-2-yl)-3-(4-(N-methylsulfamoyl)phenyl)-1H-pyrazol-5-yl)pyrazolo[1,5-a]pyrimidine-3-carboxamide]
> 1	Cc1ccc(-n2nc(C3CCN(C4CCN(C)CC4)CC3)cc2NC(=O)c2cnn3cccnc23)cc1 [Example 205]
